Source: patent publication US20040209273A1, “Plant stress-regulated genes” (priority 2001, published 2004)

What was measured:
tobacco leaf disc mRNA = test: Differential mRNA display of MV-pretreated versus water-pretreated leaf discs; parameters: species or system Nicotiana tabacum; conditions: 0.1 μM MV for 17 hours; estimated from sequencing data
Method: Total RNA was treated with DNaseI prior to RT-PCR according to the manufacturer's instructions (Life Technologies, Paisley, UK). Alternatively, up to 20 μg of total RNA was incubated with 5 U DNaseI, 18 U Recombinant Ribonuclease Inhibitor (Promega Corp., Madison, Wis., USA), 1 mM DTT in 80 μl of 10 mM Tris-Cl, pH 8.3, 50 mMKCl and 1.5 mM MgCl2 for 30 minutes at 37° C. RNA was extracted with phenol/CHCl3 (3:1), ethanol precipitated and dissolved in diethyl pyrocarbonate-treated water. mRNA differential display was performed with the RNA map™ kit (Gene Hunter Corp., Nashville, Tenn., USA), AmliTaq DNA polymerase (Perkin-Elmer, Branchburg, N.J., USA) and [^33P] dATP (0.2 μl/20 μl PCR reaction of 111 000 GBq/mmol; Isotopchim, Ganagobie-Peyruis, FR). 3.5 μl of each PCR reaction was mixed with 2 μl of loading dye and denatured at 95° C. for five minutes prior to loading onto 6% DNA sequencing gel. […]
In order to identify which genes other than those encoding antioxidant enzymes would show altered mRNA levels during oxidative stress adaptation, reference samples placed in water for 17 hours, or samples pretreated with 0.1 μM MV for 17 hours (adapted leaf discs), were compared by differential mRNA display. […] Expression of 16 genes was further analyzed by Northern analysis with RNA from an independent experiment. […]

[1] = tested on: Gpx, SodCc and differential-display genes (mRNA); test: Northern analysis of gene expression in leaf discs during MV pretreatment and treatment; parameters: species or system Nicotiana tabacum
Method: Total RNA was extracted from frozen leaf discs using TRIzol™ Reagent (Life Technologies, Paisley, UK) according to the manufacturer's instructions. RNA samples were treated prior to electrophoresis and resolved on 1% agarose gel as described by Shaul et al. (1996). The RNA was blotted on nylon membrane (Hybond-N, Amersham International plc., Buckinghamshire, UK or Qiabrane, Qiagen GmbH, Hilden, DE) by capillary blotting (Maniatis et al., 1982). RNA was fixed to the membrane by cross-linking at 150 mJ/cm^2. To check the quality of RNA prior to hybridization, membranes were incubated for 15 minutes in 5% acetic acid and stained for five minutes in 0.04% methylene blue in 0.5 M sodium acetate (pH 5.2), and rinsed with water. After the staining and quality check, membranes were destained in 0.1×SSC (Maniatis et al., 1982) containing 0.5% SDS (w/v). Membranes were hybridized at 65° C. in 50% formamide, 5×SSC, 0.5% SDS and 10% dextran sulphate. ^32P-labeled RNA probes corresponding to the cDNA fragments of GPx (Criqui et al., 1992), SodCc (PSOD 3-5′ fragment; Tsang et al., 1991), SodB (pSOD 2-5′ fragment; Tsang et al., 1991), Cat1 (pCat1A; Willekens et al., 1994), and N. tabacum actin (pRVA12; Aventis Crop Science, BE) were generated by the Riboprobe® System (Promega Corp., Madison, Wis., USA). RNA probes corresponding to cDNA fragments isolated by differential display and cloned into pGEM®-T vector (Promega Corp., Madison, Wis., USA) were generated according to the same protocol. Membranes were washed at 65° C. for 15 minutes each in 3×SSC (Maniatis et al., 1982), 1×SSC and 0.1×SSC (stringent washing) containing 0.5% SDS (w/v). Membranes were exposed to the Storage Phosphor Screen and scanned with the Phosphorlmager 445 SI (Molecular Dynamics Inc., Sunnyvale, Calif., USA). Membranes were reused after stripping of the probe in 0.1×SSC at 85° C. Removal of the probe was checked by autoradiography.
mRNA levels of several antioxidant genes were tested by Northern analysis during the pretreatment and the treatment. […]

tobacco leaf discs = test: Ion leakage (solute conductance) from tobacco leaf discs floated on methyl viologen solutions; parameters: species or system Nicotiana tabacum
Method: Nicotiana tabacum cv. Petit Havana SR1 plants were grown in a controlled environment chamber (Weiss Technik, Lindenstruth, DE) under 100 μmol/m^2/s light intensity (photosynthetically active radiation), 16 hours light/8 hours dark regime, relative humidity of 70% and constant temperature of 24° C. The most expanded leaves (11-12 cm long×7-8 cm wide) from five week old plants were used for experiments with methyl viologen.
Leaf discs (1 cm in diameter) were punched with a cork-bore from the interveinal part of the leaf. Three leaf discs, each originating from different plants, were floated with the abaxial side up on 12 ml of methyl viologen solution in nanopure water or water solely in the case of control. Treatments were performed in controlled environment chambers, under the same conditions as for growth, except as otherwise indicated. Leaf discs for RNA extraction were drained on paper, rapidly frozen in liquid nitrogen and stored at −70° C. Ion leakage from the leaf discs was measured as conductivity of the solution using a conductivity meter (Consort, Turnhout, BE)
As a first step in studying adaptive responses to oxidative stress in tobacco, we wanted to establish an experimental system in which low doses of oxidant would induce adaptation to higher doses of the same compound. MV, a redox-active compound that enhances superoxide radical (O2 ? ) formation mainly in chloroplasts, was used as an oxidant. In order to determine MV concentrations suited for the induction of adaptation and for the subsequent oxidative stress treatment, sensitivity of tobacco to MV was first determined. Leaf discs were floated on solutions with different concentrations of MV and ion leakage was monitored by measuring the solute conductance. If not scavenged, superoxide generated by MV is converted through redox-reactions into other active oxygen species (AOS) such as hydroxyl radicals that interact with biological molecules and cause oxidative damage (Halliwell and Gutteridge, 1989). Peroxidation of membrane lipids results in loss of membrane integrity that is reflected by enhanced cellular ion leakage. […] These concentrations thus seemed most suitable for inducing adaptation to MV.
To test whether exposure to sublethal amounts of MV enhances tolerance to higher, normally toxic amounts of this compound, tobacco leaf discs were floated on solutions with less than 0.2 μM MV and subsequently transferred to solutions within the molar range of 0.2-2 μM. Increase in tolerance was assessed by measuring the solute conductance. Leaf discs pretreated with water were taken as nonadapted controls. […]

A. thaliana plants = test: Growth of Arabidopsis seedlings on plates containing methyl viologen; format: in vivo, Arabidopsis thaliana; conditions: 2 μM MV in ½ MS, 1% sucrose; three to four weeks; transformed lines and C24 control
Method: Eighty plants of an F2-progeny of the transgenic line WV4 (construct pWRKY-VP16-pGSJ780A) were grown on MS+Kanamycine for two and a half weeks. Fifteen kanamycine-resistant seedlings were transferred to plates containing ½ MS, 1% sucrose and 2 μM methyl viologen (paraquat) or to plates containing ½ MS, 1% sucrose for the controls.
Wild-type Arabidopsis plants were treated in a similar way (except for selection on Kanamycine).
Performance of plants was followed and pictures were taken after approximately three weeks.
Segregating populations (F2) of A. thaliana plants (C 24) transformed with WRKY11 under control of the 35S promoter (35S—WRKY11) or with WRKY11 fused to the VP16 activation domain under control of the 35S promoter (35S—WRKY11-VP16) were grown on MS media with kanamycine. Approximately three-week-old seedlings resistant to kanamycine from 3:1 segregating lines (WV4 and WV9 WRKY11-VP16 transformed lines) were transferred to the solid media containing ½ MS salts, 1% sucrose and 2 μM methyl viologen (MV) or on plates without MV. As control plants, untransformed A. thaliana plants were used (C24). After three to four weeks, phenotypic differences were assessed.

C[n+]1ccc(-c2cc[n+](C)cc2)cc1 [MV, methyl viologen]
total number of genes with altered expression after MV pretreatment (tobacco leaf disc mRNA): ~170 | expression of all Table 2 genes except DIOX ([1]; after 12 hours of the pretreatment with 0.1 μM MV): induced | expression of all Table 2 genes except DIOX ([1]; during the treatment with 1 μM MV, induction started within the first three hours): further induced | Gpx and SodCc mRNA level ([1]; pretreatment with 0.1 μM MV): persistent increase | leaf damage measured as solute conductance versus applied dose (tobacco leaf discs; 0.2-2 μM MV): clearly correlated with the applied dose of MV | visible damage of leaf discs (tobacco leaf discs; concentrations lower than 0.2 μM MV, after 42 hours of incubation): no visible damage | increase in ion leakage from the leaf discs in comparison with water-treated controls (tobacco leaf discs; concentrations lower than 0.2 μM MV, up to 42 hours of incubation): very little increase in ion leakage | protection against MV compared to water-pretreated control samples (solute conductance) (tobacco leaf discs; pretreated with 0.1 μM MV for 17 hours, then treated with 1 μM MV for 11 hours, mean): 40% | growth of plants on plates containing MV (A. thaliana plants): retarded
